Source: patent US20050107441A1, “Compositions and methods for altering glucose production” (priority 2001, published 2005)

Assays:
[1] = test system: SHP mRNA; assay: Insulin treatment of ZDF rats, real-time quantitative PCR of liver RNA: SHP mRNA; assay type: in vivo, Zucker diabetic fatty (ZDF) rats; settings: pooled RNA samples, 6 hours after subcutaneous insulin vs vehicle (0.9% normal saline)
Procedure: (§1) In these experiments, ZDF rats were treated for 6 hours with insulin or vehicle (0.9% normal saline) alone. At the end of this period, the rats were killed and RNA prepared from their livers. […] Conversely, PEPCK levels decreased by approximately 2 fold in response to insulin.
(§2) All procedures performed were in compliance with the Animal Welfare Act, USDA regulations and approved by the GlaxoSmithKline Institutional Animal Care and Use Committee. Animals were housed at 72 F and 50% relative humidity with a 12 hour light and dark cycle, and fed chow diet (Formulab Diet 5008, PMI Feeds Inc., Richmond, Ind.). Insulin-treated animals received a mixture of HUMULIN®N and HUMULIN®R (Lilly, Indianapolis, Ind.) by subcutaneous injection and were sacrificed six hours later. RTQ-PCR was performed using an ABI PRISM 7700 Sequence Detection System instrument and software (PE Applied Biosystems, Inc., Foster City, Calif.) in accordance with procedures described by Way et al. (Endocrinology 2001 142: 1269-77). Primers used include:Rat PEPCK forward: TGAGGAAGTTTGTGGAAG (SEQ ID NO:1) • Rat PEPCK reverse: GCCGTCGCAGATGTGAAT (SEQ ID NO:2) • Rat PEPCK probe: TGCCCAGCTGTGCCAGCC (SEQ ID NO:3) • Rat SHP forward: TGGTACCCAGCTAGCCAAG (SEQ ID NO:4) • Rat SHP reverse: TGTTCTTGAGGGTGGAAGC (SEQ ID NO: 5) • Rat SHP probe: CGCCTGGCCCGAATCCTCC (SEQ ID NO:6) [drawing]

[2] = test system: PEPCK; assay: Insulin treatment of ZDF rats, real-time quantitative PCR of liver RNA: PEPCK mRNA; assay type: in vivo, Zucker diabetic fatty (ZDF) rats; settings: pooled RNA samples, 6 hours after subcutaneous insulin vs vehicle (0.9% normal saline)
Procedure: as §1, §2

insulin
SHP mRNA levels increased in response to insulin [1]: approximately 17 fold | PEPCK levels decreased in response to insulin [2]: approximately 2 fold
